Experiments:
plasma insulin = assay: Inhibition of insulin: lowering of portal vein plasma insulin in anesthetized rats; type: in vivo, rats (male Sprague-Dawley); settings: somatostatin = 1; i.v. via external jugular vein, portal vein blood after 5 minutes; limits in parentheses
Procedure: (§1) The relative potencies of somatostatin analogs on the lowering of plasma insulin and glucagon are determined by the following method:
(§2) Analogs of somatostatin were compared to somatostatin in their ability to lower the levels of portal vein glucagon and insulin in anesthetized rats. Male Sprague-Dawley rats (Charles River CD) weighing 160-200 grams were anesthetized with urethane (150 mg./100 gm.) Saline or peptides were administered via the external jugular vein. After 5 minutes the portal vein was exposed and blood was collected via syringes containing 3 mg. EDTA and placed in chilled tubes containing 100 μl. of Trasylol (obtained from FBA Pharmaceuticals) for subsequent hormone analysis. Plasma levels of glucagon were determined by the method of Faloona, G. R., and Unger, R. H. "Glucagon" in Methods of Hormone Radioimmunoassay, eds. […] Plasma levels of insulin were determined by a modification of the procedure of Herbert, V., Lau, K. S. Gottlieb, C. […]
(§3) Doses were randomized between groups of animals (6 rats/group). Potency values were determined by four, six, or eight point bioassays with somatostatin as the reference standard. Relative potency values were calculated by a relative potency formula for parallel line bioassays as described in Finney, D. J. Statistical Method in Biological Assay (Charles Griffin and Co., Ltd., London) Chap. […]

[1] = tested on: pentagastrin evoked gastric secretion; assay: Pentagastrin evoked gastric secretion in chronic fistula beagle dogs; type: in vivo; settings: 0.8 γ/kg./min. infused 0-60 min.
Procedure: The effect of somatostatin and its analogs on gastric secretion were determined by the following method:
Compounds were tested for their ability to inhibit pentagastrin evoked gastric secretion in the chronic fistula dog. Female beagle dogs with a chronic gastric fistula were given pentagastrin (2.5 μg./kg./hour, i.v. from -60 to 120 min.) and gastric outputs were collected via the fistula cannula. Samples were analyzed at 30 minute intervals for volume (ml.) and titratable acid (mEq/L) (titration […] with 0.01N NaOH); total acid output (mEq) was calculated as the product of output volume and acid concentration. Test compounds were infused at a constant rate from 0 to 60 minutes. Data have been expressed as percent change of total acid output relative to a placebo trial in the same animals.

plasma glucagon = assay: Inhibition of glucagon: lowering of portal vein plasma glucagon in anesthetized rats; type: in vivo, rats (male Sprague-Dawley); settings: somatostatin = 1; i.v. via external jugular vein, portal vein blood after 5 minutes; limits in parentheses
Procedure: as §1, §2, §3

Rat pituicytes = assay: Growth hormone inhibition in vitro; type: cell-based; settings: somatostatin = 1, 4 hours incubation, limits in parentheses
Procedure: Rat pituicytes were isolated according to the procedures of Vale and Grant "In vitro Pituitary Hormone Secretion Assay for Hypophysiotropic Substances" in Methods in Enzymology. Vol. XXXVII, eds. O'Malley, B. W. and Hardman, J. G. (Academic Press, Inc., New York) pp. 5-93 (1975).
After 4 days in culture, the cells were washed and incubated for 4 hours in Dulbecco-modified Eagle's medium in the presence or absence of graded doses of each analog or somatostatin. The medium was then collected for subsequent growth hormone determination by a double antibody radioimmunoassay for rat growth hormone.
(§4) Doses were randomized between groups of animals (6 rats/group). Potency values were determined by four, six, or eight point bioassays with somatostatin as the reference standard. Relative potency values were calculated by a relative potency formula for parallel line bioassays as described in Finney, D. J. Statistical Method in Biological Assay (Charles Griffin and Co., Ltd., London) Chap. 4 pp. 99-138 (1964).

growth hormone release = assay: Inhibition of pentobarbital stimulated growth hormone release in vivo; parameters: species or system rats; settings: somatostatin = 1; subcutaneous injection, blood after 15 minutes; limits in parentheses
Procedure: Somatostatin analogs were compared to somatostatin in their ability to inhibit the release of growth hormone in pentobarbital stimulated rats; a modification of the procedure of Brazeau et al. Endocrinology, 94, 184-187 (1974) was employed. Rats were lightly etherized and sodium pentobarbital (17 mg./Kg. was injected into the exposed Saphenous vein; somatostatin or analog was simultaneously injected subcutaneously. After 15 minutes the animals were bled via the orbital sinus and blood collected for subsequent growth hormone analysis.
as §4

## C[C@H](N)C(=O)NCC(=O)N[C@H]1CSSC[C@@H](C(=O)O)NC(=O)[C@H](CO)NC(=O)[C@H]([C@@H](C)O)NC(=O)[C@H](Cc2ccccc2)NC(=O)[C@H]([C@@H](C)O)NC(=O)[C@H](CCCCN)NC(=O)[C@H](Cc2c[nH]c3ccccc23)NC(=O)[C@H](Cc2ccccc2)NC(=O)[C@H](Cc2ccccc2)NC(=O)[C@H](CC(N)=O)NC(=O)[C@H](CCCCN)NC1=O [(I), Somatostatin]
Plasma insulin
  Inhibition of Insulin, potency relative to somatostatin: 1
[1]; sample 0-30 min, during treatment
  Titratable acid, percent change, during 0-30: -16%
[1]; sample 0-30 min, during treatment, relative to placebo trial in the same animals
  Total acid output, percent change, during 0-30: -89%
[1]; sample 30-60 min, during treatment
  Titratable acid, percent change, during 30-60: -17%
[1]; sample 30-60 min, during treatment, relative to placebo trial in the same animals
  Total acid output, percent change, during 30-60: -99%
[1]; sample 60-90 min, post-treatment
  Titratable acid, percent change, post-treat 60-90: -61%
[1]; sample 60-90 min, post-treatment, relative to placebo trial in the same animals
  Total acid output, percent change, post-treat 60-90: -93%
[1]; sample 90-120 min, post-treatment
  Titratable acid, percent change, post-treat 90-120: -41%
[1]; sample 90-120 min, post-treatment, relative to placebo trial in the same animals
  Total acid output, percent change, post-treat 90-120: -45%
Plasma glucagon
  Inhibition of Glucagon, potency relative to somatostatin: 1
Rat pituicytes
  Growth Hormone Inhibition In Vitro, potency relative to somatostatin: 1
Growth hormone release
  Inhibition of Pentobarbital Stimulated Growth Hormone Release In Vivo, potency relative to somatostatin: 1

— US4139526A, “Somatostatin analogs” (Merck & Co., Inc., priority 1977, dated 1979)
